Data from patent US20100311698A1, “AQUEOUS BASED PHARMACEUTICAL FORMULATIONS OF WATER-SOLUABLE PRODRUGS OF PROPOFOL” (EISAI C[…] NORTH AMERICA, priority 2006, published 2010).
Like-named read-outs stand apart in the source and are kept apart here.

Tests used:
[1] = DIP (propofol) formation by hydrolysis at accelerated stability conditions as a function of pH; format: physicochemical; settings: for DIP formation: 40° C./75% RH
Description: This example illustrates that the degradation of O-phosphonooxymethyl propofol is pH dependent. In particular, higher pH conditions generally result in lower rates of hydrolysis (degradation) of the prodrug, while lower pH conditions increase the rate of hydrolysis. […]

[2] = Water solubility; format: physicochemical; settings: degradation products of the prodrug
[3] = background statement; cited from earlier work
[4] = anesthetic induction doses; cited from earlier work
[5] = commercially available formulations; cited from earlier work

In the case of CC(C)c1cccc(C(C)C)c1OCOP(=O)(O)O [O-phosphonooxymethyl propofol, O-phosphonooxymethyl-propofol], the DIP formation ([1]; pH 6.9, 1 month) is reported as 1.22 % w/v, the DIP formation ([1]; pH 6.9, 3 months) is reported as 1.90 % w/v and the DIP formation ([1]; pH 6.9, 6 months) is reported as 3.47 % w/v. For the same compound, the DIP formation ([1]; pH 7.4, 1 month) was 0.83 % w/v, the DIP formation ([1]; pH 7.4, 3 months) was 0.67 % w/v and the DIP formation ([1]; pH 7.4, 6 months) was 2.14 % w/v. For the same compound, the DIP formation ([1]; pH 8.0, 1 month) was 0.32 % w/v, the DIP formation ([1]; pH 8.0, 3 months) was 0.76 % w/v and the DIP formation ([1]; pH 8.0, 6 months) was 0.72 % w/v. For the same compound, the DIP formation ([1]; pH 8.5, 1 month) was 0.15 % w/v, the DIP formation ([1]; pH 8.5, 3 months) was 0.41 % w/v and the DIP formation ([1]; pH 8.5, 6 months) was 0.73 % w/v. The DIP formation ([1]; pH 9.1, 3 months) was 0.12 % w/v, the DIP formation ([1]; pH 9.1, 6 months) was 0.22 % w/v and the DIP formation ([1]; pH 9.9, 6 months) was 0.09 % w/v. The Amount of hydrolysis ([1]; pH of about 9-9.5, 40° C., 75% RH) was “least amount of hydrolysis”.

For CC(C)c1cccc(C(C)C)c1O [propofol], the Water solubility [2] is given as “poorly water-soluble”, the Water solubility [3] is given as “poorly water soluble” and the “Respiratory consequences, including a reduction in tidal volume and apnea” value [4] is given as “up to 83 % of patients”. The Oral bioavailability [5] was “very low”.

With quinone the Water solubility [2] was “poorly water-soluble”.

With Oc1ccc(O)cc1 [hydroquinone] the Water solubility [2] was “poorly water-soluble”.
